Reference: patent publication US8785457B2 (Cellzome Limited, priority 2009, dated 2014)
Like-named read-outs stand apart in the source and are kept apart here.

Tests used:
PI3 Kbeta (PI3 Kb) = target: T1, PI3 Kbeta (PI3 Kb) (Homo sapiens, UniProt P42338); experiment: kinobeads assay, PI3Kbeta; type: binding
T1 construct: endogenous in cells; host or cells: cell lysate
Procedure, shortened: (§1)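 Cell lysate aliquots are incubated with compound over a concentration range and with an affinity matrix of immobilized phenylmorpholin-chromen ligand. Beads are then removed, bound proteins eluted, and each kinase is quantified by multiplexed immunodetection to derive IC50 values.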

mTOR = target: T2, mTOR (Homo sapiens, UniProt P42345); experiment: mTOR kinobeads assay (competitive binding in Jurkat cell lysate, immunodetection)
T2 construct: endogenous in cells; host or cells: Jurkat, clone E6-1 (ATCC TIB-152) cell lysate
Procedure, shortened: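 IC50 derived from dose-response curves of mTOR captured on immobilized phenylmorpholin-chromen beads, detected by antibody dot blot with infrared fluorescence.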

PI3Kalpha (PI3Ka) = target: T3, PI3Kalpha (PI3Ka) (Homo sapiens, UniProt P42336); experiment: kinobeads assay, PI3Kalpha; type: binding
T3 construct: endogenous in cells; host or cells: cell lysate
Procedure, shortened: as §1

PI3 Kgamma (PI3 Kg) = target: T4, PI3 Kgamma (PI3 Kg) (Homo sapiens, UniProt P48736); experiment: kinobeads assay, PI3Kgamma; type: binding
T4 construct: endogenous in cells; host or cells: cell lysate
Procedure, shortened: as §1

[1] = Further Kinobeads Data, read-out: PI3Kb
[2] = Further Kinobeads Data, read-out: mTor
[3] = Further Kinobeads Data, read-out: PI3Ka
[4] = Further Kinobeads Data, read-out: PI3Kg
[5] = kinobeads assay, Table 6, read-out: Inhibition values (IC50) PI3Kb
[6] = kinobeads assay, Table 4, read-out: Inhibition values (IC50) mTor
[7] = kinobeads assay, Table 6, read-out: Inhibition values (IC50) mTOR
[8] = kinobeads assay, Table 6, read-out: Inhibition values (IC50) PI3Kg

T4 sequence (P48736 whole entry): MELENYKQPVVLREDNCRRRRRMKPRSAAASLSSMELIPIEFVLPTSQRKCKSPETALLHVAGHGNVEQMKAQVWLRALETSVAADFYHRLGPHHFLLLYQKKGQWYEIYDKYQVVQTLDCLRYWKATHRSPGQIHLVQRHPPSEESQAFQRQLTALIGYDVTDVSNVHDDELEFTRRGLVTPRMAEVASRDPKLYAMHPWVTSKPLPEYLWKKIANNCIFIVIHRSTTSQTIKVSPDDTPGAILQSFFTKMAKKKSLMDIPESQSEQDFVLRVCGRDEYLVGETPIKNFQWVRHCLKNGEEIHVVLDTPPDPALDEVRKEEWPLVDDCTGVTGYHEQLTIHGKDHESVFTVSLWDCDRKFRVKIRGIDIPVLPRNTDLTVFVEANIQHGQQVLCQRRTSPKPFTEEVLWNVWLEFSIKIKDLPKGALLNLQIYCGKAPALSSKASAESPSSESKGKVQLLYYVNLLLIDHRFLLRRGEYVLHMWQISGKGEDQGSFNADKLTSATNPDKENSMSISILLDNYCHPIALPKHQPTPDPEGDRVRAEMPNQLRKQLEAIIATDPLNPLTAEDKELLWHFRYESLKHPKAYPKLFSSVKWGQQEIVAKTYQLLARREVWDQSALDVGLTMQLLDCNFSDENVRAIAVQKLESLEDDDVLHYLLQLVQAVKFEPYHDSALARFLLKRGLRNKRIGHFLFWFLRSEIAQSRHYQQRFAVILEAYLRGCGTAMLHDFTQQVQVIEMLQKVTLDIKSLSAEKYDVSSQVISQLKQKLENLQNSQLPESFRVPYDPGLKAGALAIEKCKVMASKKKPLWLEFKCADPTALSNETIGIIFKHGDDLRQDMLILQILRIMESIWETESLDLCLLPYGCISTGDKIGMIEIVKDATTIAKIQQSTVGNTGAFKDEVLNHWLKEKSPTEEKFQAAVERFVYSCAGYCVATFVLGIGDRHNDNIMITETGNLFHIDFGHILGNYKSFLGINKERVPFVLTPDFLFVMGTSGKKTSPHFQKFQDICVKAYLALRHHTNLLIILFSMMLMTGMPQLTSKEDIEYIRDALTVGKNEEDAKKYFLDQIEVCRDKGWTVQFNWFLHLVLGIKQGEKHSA
T1 sequence (P42338 whole entry): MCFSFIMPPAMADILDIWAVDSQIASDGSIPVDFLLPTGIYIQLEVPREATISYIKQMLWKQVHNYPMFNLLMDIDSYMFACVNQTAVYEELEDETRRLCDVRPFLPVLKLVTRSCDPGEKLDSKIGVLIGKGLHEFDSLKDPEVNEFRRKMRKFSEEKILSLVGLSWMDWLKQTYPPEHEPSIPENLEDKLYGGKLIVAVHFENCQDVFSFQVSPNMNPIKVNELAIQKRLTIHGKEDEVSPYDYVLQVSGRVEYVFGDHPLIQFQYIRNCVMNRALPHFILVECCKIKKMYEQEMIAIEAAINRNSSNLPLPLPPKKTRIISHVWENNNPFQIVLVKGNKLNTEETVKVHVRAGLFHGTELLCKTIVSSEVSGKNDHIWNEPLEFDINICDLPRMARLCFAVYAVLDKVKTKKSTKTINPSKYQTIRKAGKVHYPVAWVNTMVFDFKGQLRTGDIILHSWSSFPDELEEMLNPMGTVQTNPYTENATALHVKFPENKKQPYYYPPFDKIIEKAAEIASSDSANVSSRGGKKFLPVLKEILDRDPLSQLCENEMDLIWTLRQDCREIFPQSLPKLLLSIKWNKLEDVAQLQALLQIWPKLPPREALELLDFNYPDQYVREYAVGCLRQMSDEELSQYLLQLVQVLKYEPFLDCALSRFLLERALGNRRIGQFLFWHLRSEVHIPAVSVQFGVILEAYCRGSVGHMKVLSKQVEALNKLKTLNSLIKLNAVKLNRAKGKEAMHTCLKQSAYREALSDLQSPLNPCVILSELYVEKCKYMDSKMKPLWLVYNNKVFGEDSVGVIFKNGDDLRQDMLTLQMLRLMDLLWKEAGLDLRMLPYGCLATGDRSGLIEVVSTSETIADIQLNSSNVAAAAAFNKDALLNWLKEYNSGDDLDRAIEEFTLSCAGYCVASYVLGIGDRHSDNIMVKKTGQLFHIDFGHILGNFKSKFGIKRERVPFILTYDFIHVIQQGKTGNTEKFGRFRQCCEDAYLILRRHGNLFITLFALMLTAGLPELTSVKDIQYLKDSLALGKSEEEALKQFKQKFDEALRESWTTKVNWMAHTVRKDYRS
T1 sequence (P27986 whole entry partner): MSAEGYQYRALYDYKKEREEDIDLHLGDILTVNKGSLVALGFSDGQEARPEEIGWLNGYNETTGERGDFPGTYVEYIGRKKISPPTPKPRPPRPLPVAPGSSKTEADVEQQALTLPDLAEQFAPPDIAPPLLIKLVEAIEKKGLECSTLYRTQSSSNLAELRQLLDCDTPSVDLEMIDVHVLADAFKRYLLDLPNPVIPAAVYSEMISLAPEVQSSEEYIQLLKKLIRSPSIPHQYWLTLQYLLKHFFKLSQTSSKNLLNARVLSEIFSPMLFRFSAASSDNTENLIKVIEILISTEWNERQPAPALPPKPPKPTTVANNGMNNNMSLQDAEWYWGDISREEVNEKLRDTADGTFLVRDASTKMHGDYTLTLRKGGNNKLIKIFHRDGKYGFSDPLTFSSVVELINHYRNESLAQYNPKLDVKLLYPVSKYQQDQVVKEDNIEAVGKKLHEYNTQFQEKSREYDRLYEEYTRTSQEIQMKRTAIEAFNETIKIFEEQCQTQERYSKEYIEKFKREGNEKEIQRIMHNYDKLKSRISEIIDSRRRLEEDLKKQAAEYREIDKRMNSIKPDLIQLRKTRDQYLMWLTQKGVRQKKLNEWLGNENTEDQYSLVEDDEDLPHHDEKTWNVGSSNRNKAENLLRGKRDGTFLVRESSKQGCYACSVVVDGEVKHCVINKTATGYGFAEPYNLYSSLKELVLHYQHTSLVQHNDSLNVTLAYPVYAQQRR
T3 sequence (P42336 whole entry): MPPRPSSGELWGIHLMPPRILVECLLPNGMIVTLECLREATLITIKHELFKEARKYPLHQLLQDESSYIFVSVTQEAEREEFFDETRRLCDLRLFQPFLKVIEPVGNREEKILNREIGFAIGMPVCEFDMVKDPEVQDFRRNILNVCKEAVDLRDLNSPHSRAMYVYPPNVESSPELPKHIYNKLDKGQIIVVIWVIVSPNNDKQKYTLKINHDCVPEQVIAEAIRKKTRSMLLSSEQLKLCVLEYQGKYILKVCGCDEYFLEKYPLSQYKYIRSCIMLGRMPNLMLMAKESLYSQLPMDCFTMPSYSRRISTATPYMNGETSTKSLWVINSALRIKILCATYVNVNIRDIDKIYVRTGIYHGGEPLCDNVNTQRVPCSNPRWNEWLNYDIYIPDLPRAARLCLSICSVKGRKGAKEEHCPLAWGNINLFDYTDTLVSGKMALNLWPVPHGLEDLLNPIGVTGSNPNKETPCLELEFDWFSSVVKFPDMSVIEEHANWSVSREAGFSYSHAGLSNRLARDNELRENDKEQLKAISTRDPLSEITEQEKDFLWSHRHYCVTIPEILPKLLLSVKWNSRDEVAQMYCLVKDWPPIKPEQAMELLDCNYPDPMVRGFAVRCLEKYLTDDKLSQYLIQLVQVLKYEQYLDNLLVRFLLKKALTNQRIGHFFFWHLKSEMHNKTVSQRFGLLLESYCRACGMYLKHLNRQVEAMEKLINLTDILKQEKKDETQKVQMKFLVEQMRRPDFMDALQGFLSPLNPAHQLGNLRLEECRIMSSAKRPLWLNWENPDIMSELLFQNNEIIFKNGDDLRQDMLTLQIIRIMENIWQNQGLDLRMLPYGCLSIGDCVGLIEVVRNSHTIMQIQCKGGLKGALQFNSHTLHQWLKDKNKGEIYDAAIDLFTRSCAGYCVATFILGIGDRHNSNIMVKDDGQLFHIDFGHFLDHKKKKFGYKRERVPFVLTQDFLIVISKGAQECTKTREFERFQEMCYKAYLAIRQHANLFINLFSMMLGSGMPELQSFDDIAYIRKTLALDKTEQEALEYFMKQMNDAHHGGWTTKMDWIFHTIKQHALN
T3 sequence (P27986 whole entry partner): as the sequence (P27986 whole entry partner) above

Q: How did the IC50 (PI3 Kbeta (PI3 Kb); [1]) turn out when `CCNC(=O)Nc1ccc(-c2nc3c(c(N4CCOCC4)n2)CN(C(=O)OC)C3)c(F)c1` [Example 162, methyl 2-(4-(3-ethylureido)-2-fluorophenyl)-4-morpholino-5H-pyrrolo[3,4-d]pyrimidine-6(7H)-carboxylate] was run?
A: 1000 to 10000 nM

Q: And the IC50 (mTOR; [2])?
A: < 100 nM

Q: What about the IC50 (PI3Kalpha (PI3Ka); [3]) of the same compound?
A: 1000 to 10000 nM

Q: What about the IC50 (PI3 Kgamma (PI3 Kg); [4]) of the same compound?
A: > 10000 nM

Q: With `CC(C)C(=O)N1Cc2nc(-c3ccc(NC(=O)NC4CC4)cc3F)nc(N3CCOC[C@@H]3C)c2C1` [Example 174, (S)-1-cyclopropyl-3-(3-fluoro-4-(6-isobutyryl-4-(3-methylmorpholino)-6,7-dihydro-5H-pyrrolo[3,4-d]pyrimidin-2-yl)phenyl)urea] as the compound, how does the IC50 (PI3 Kbeta (PI3 Kb); [1]) read?
A: > 10000 nM

Q: And the IC50 (mTOR; [2])?
A: < 100 nM

Q: What about the PI3Ka (PI3Kalpha (PI3Ka); Further Kinobeads Data) of the same compound?
A: D (D >10 μM)

Q: And the IC50 (PI3 Kgamma (PI3 Kg); [4])?
A: > 10000 nM

Q: How did the IC50 (PI3 Kbeta (PI3 Kb); [1]) turn out when `C[C@@H]1COCCN1c1nc(-c2ccc(NC(=O)NC3CC3)cc2F)nc2c1CN(C(=O)C1CC1)C2` [Example 188, (R)-1-(4-(6-(cyclopropanecarbonyl)-4-(3-methylmorpholino)-6,7-dihydro-5H-pyrrolo[3,4-d]pyrimidin-2-yl)-3-fluorophenyl)-3-cyclopropylurea] was run?
A: > 10000 nM

Q: What about the IC50 (mTOR; [2]) of the same compound?
A: < 100 nM

Q: And the IC50 (PI3Kalpha (PI3Ka); [3])?
A: 1000 to 10000 nM

Q: What about the IC50 (PI3 Kgamma (PI3 Kg); [4]) of the same compound?
A: > 10000 nM

Q: Which results are given for `C[C@H]1COCCN1c1nc(-c2ccc(NC(=O)Nc3ccc(F)cc3)cc2)nc2c1CN(C)C2` [Example 52, (S)-1-(4-fluorophenyl)-3-(4-(6-methyl-4-(3-methylmorpholino)-6,7-dihydro-5H-pyrrolo[3,4-d]pyrimidin-2-yl)phenyl)urea]?
A: IC50 (PI3 Kbeta (PI3 Kb); [5]): > 10000 nM; IC50 (mTOR; [6]): 100 to 1000 nM; IC50 (mTOR; [7]): 100 to 1000 nM; Inhibition values (IC50) PI3Ka (PI3Kalpha (PI3Ka); kinobeads assay, Table 6): D (D >10 μM); IC50 (PI3 Kgamma (PI3 Kg); [8]): > 10000 nM

Q: What does the source list for `COC(=O)N1Cc2nc(-c3ccc(NC(=O)NC4CC4)cc3F)nc(N3CCOC[C@@H]3C)c2C1` [Example 146, (S)-methyl 2-(4-(3-cyclopropylureido)-2-fluorophenyl)-4-(3-methylmorpholino)-5H-pyrrolo[3,4-d]pyrimidine-6(7H)-carboxylate]?
A: IC50 (PI3 Kbeta (PI3 Kb); [1]): > 10000 nM; IC50 (mTOR; [2]): 100 to 1000 nM; PI3Ka (PI3Kalpha (PI3Ka); Further Kinobeads Data): D (D >10 μM); IC50 (PI3 Kgamma (PI3 Kg); [4]): > 10000 nM

Q: For `CCOC(=O)N1Cc2nc(-c3ccc(NC(=O)NC4CC4)cc3F)nc(N3CCOC[C@H]3C)c2C1` [Example 179, (R)-ethyl 2-(4-(3-cyclopropylureido)-2-fluorophenyl)-4-(3-methylmorpholino)-5H-pyrrolo[3,4-d]pyrimidine-6(7H)-carboxylate], which IC50 (PI3 Kbeta (PI3 Kb); [1]) is on record?
A: > 10000 nM

Q: And the IC50 (mTOR; [2])?
A: < 100 nM

Q: And the PI3Ka (PI3Kalpha (PI3Ka); Further Kinobeads Data)?
A: D (D >10 μM)

Q: And the IC50 (PI3 Kgamma (PI3 Kg); [4])?
A: > 10000 nM

Q: What does the source list for `CCNC(=O)Nc1ccc(-c2nc3c(c(N4CCOC[C@@H]4C)n2)CN(C(=O)c2ccc(F)cc2)C3)cc1` [Example 19, (S)-1-ethyl-3-(4-(6-(4-fluorobenzoyl)-4-(3-methylmorpholino)-6,7-dihydro-5H-pyrrolo[3,4-d]pyrimidin-2-yl)phenyl)urea]?
A: IC50 (PI3 Kbeta (PI3 Kb); [5]): > 10000 nM; IC50 (mTOR; [6]): 100 to 1000 nM; IC50 (mTOR; [7]): 100 to 1000 nM; Inhibition values (IC50) PI3Ka (PI3Kalpha (PI3Ka); kinobeads assay, Table 6): D (D >10 μM); IC50 (PI3 Kgamma (PI3 Kg); [8]): > 10000 nM

Q: Which IC50 (PI3 Kbeta (PI3 Kb); [1]) does the source give for `CCNC(=O)Nc1ccc(-c2nc3c(c(N4CCOC[C@@H]4C)n2)CN(C)C3)c(F)c1` [Example 160, (S)-1-ethyl-3-(3-fluoro-4-(6-methyl-4-(3-methylmorpholino)-6,7-dihydro-5H-pyrrolo[3,4-d]pyrimidin-2-yl)phenyl)urea] here?
A: > 10000 nM

Q: What about the IC50 (mTOR; [2]) of the same compound?
A: < 100 nM

Q: What about the PI3Ka (PI3Kalpha (PI3Ka); Further Kinobeads Data) of the same compound?
A: D (D >10 μM)

Q: And the IC50 (PI3 Kgamma (PI3 Kg); [4])?
A: > 10000 nM

Q: With `CCNC(=O)Nc1ccc(-c2nc3c(c(N4CCOC[C@@H]4C)n2)CCNC3)c(F)c1` [Example 164, (S)-1-ethyl-3-(3-fluoro-4-(4-(3-methylmorpholino)-5,6,7,8-tetrahydropyrido[3,4-d]pyrimidin-2-yl)phenyl)urea] as the compound, how does the IC50 (PI3 Kbeta (PI3 Kb); [1]) read?
A: > 10000 nM

Q: What about the IC50 (mTOR; [2]) of the same compound?
A: < 100 nM

Q: What about the PI3Ka (PI3Kalpha (PI3Ka); Further Kinobeads Data) of the same compound?
A: D (D >10 μM)

Q: What about the IC50 (PI3 Kgamma (PI3 Kg); [4]) of the same compound?
A: > 10000 nM

Q: How did the IC50 (PI3 Kbeta (PI3 Kb); [5]) turn out when `C[C@H]1COCCN1c1nc(-c2ccc(NC(=O)NC3CC3)cc2)nc2c1CCN(CC1CC1)C2` [Example 40, (S)-1-cyclopropyl-3-(4-(7-(cyclopropylmethyl)-4-(3-methylmorpholino)-5,6,7,8-tetrahydropyrido[3,4-d]pyrimidin-2-yl)phenyl)urea] was run?
A: 1000 to 10000 nM

Q: And the IC50 (mTOR; [6])?
A: < 100 nM

Q: What about the IC50 (mTOR; [7]) of the same compound?
A: < 100 nM

Q: What about the IC50 (PI3Kalpha (PI3Ka); kinobeads assay, Table 6, read-out: Inhibition values (IC50) PI3Ka) of the same compound?
A: 1000 to 10000 nM

Q: And the IC50 (PI3 Kgamma (PI3 Kg); [8])?
A: 1000 to 10000 nM

Q: Which IC50 (PI3 Kbeta (PI3 Kb); [5]) does the source give for `CCNC(=O)Nc1ccc(-c2nc3c(c(N4CCOC[C@@H]4C)n2)CCN(C(=O)c2ccc(F)cc2)C3)cc1` [Example 24, (S)-1-ethyl-3-(4-(7-(4-fluorobenzoyl)-4-(3-methylmorpholino)-5,6,7,8-tetrahydropyrido[3,4-d]pyrimidin-2-yl)phenyl)urea] here?
A: > 10000 nM

Q: And the IC50 (mTOR; [6])?
A: 100 to 1000 nM

Q: And the IC50 (mTOR; [7])?
A: 100 to 1000 nM

Q: What about the “Inhibition values (IC50) PI3Ka” value (PI3Kalpha (PI3Ka); kinobeads assay, Table 6) of the same compound?
A: D (D >10 μM)

Q: And the IC50 (PI3 Kgamma (PI3 Kg); [8])?
A: > 10000 nM
